Like-named read-outs stand apart in the source and are kept apart here.
Key:
[1] = pH over time of 0.1 M aqueous solutions of polyhydroxy-lactones (reaction with water to free acid); assay type: physicochemical; details: for pH in aqueous solution: 0.1 M; for pH: 0.1 M (1.78%) aqueous solution
Source text: In general, because the formulation is to be applied to the skin, it is preferred to have a pH of about three to eight, to minimize irritation, and/or may be in a controlled release formulation, as discussed below. In some cases, an adjustment of the pH of the composition may be desirable because of the tendency of some polyhydroxy-lactones to react with water molecules and form free acid molecules, thereby altering the pH of the overall composition over time until the equilibrium of the reaction has been reached. This lowered pH may cause discomfort to the patient, as the compositions may irritate or sting the skin area when applied. The reaction with water is evidenced by a continued decrease in pH of the solution. As is know in the art, a freshly prepared gluconolactone 1% aqueous solution has pH 3.6. The pH changes to 2.5 after 2 hours. See, The Merck Index, 13th Edition, #4470. […]

[2] = 1% aqueous solution, cited from earlier work

SMILES	pH in aqueous solution ([1]; 1 hour)	pH in aqueous solution ([1]; 6 hours)	pH in aqueous solution ([1]; 24 hours)	pH in aqueous solution ([1]; 48 hours)	pH in aqueous solution ([1]; 72 hours)	pH in aqueous solution ([1]; fresh)	pH ([1]; 0 minutes)	pH ([1]; 60 minutes)	pH ([1]; 360 minutes)	pH ([1]; 4320 minutes)	pH ([2]; after 2 hours)	pH ([2]; freshly prepared)
CC1(C)COC(=O)C1O [D-pantolactone]	6.5	6.4	5.9	5.7	5.7	6.5	–	–	–	–	–	–
O=C[C@H](O)[C@H]1OC(=O)[C@@H](O)[C@H]1O [D-glucuronolactone]	5.7	4.8	3.4	2.6	2.3	5.7	–	–	–	–	–	–
O=C1O[C@@H](C(O)CO)[C@H](O)C1O (stereo partly drawn) [D-gulonolactone]	5.8	4.6	3.5	3.0	2.7	6.2	–	–	–	–	–	–
O=C1O[C@@H]([C@H](O)[C@H](O)CO)[C@@H](O)C1O (stereo partly drawn) [D-glucoheptonolactone]	5.6	3.9	3.1	2.5	2.3	5.6	–	–	–	–	–	–
O=C1OC[C@@H](O)[C@H]1O [D-erythronolactone]	6.3	6.2	5.5	3.2	3.1	6.3	–	–	–	–	–	–
O=C1O[C@H]([C@@H](O)CO)C(O)=C1O [Control, ascorbic acid, reference compound]	2.1	2.1	2.1	2.1	2.1	2.1	–	–	–	–	–	–

Further lines, with some results ahead:

pH in aqueous solution ([1]; 1 hour)	pH in aqueous solution ([1]; 6 hours)	pH in aqueous solution ([1]; 24 hours)	pH in aqueous solution ([1]; 48 hours)	pH in aqueous solution ([1]; 72 hours)	pH in aqueous solution ([1]; fresh)	pH ([1]; 0 minutes)	pH ([1]; 60 minutes)	pH ([1]; 360 minutes)	pH ([1]; 4320 minutes)	SMILES	pH ([2]; after 2 hours)	pH ([2]; freshly prepared)
6.1	5.9	3.9	2.8	2.6	6.2	–	–	–	–	O=C1O[C@H](CO)[C@@H](O)[C@H]1O [D-ribonolactone]	–	–
2.0	1.9	1.9	1.9	1.8	2.1	2.1	2.0	1.9	1.8	O=C1O[C@H](CO)[C@@H](O)[C@H](O)[C@H]1O [D-gluconolactone]	2.5	3.6
5.0	3.9	3.2	2.6	2.4	5.1	–	–	–	–	O=C1O[C@@H]([C@H](O)CO)[C@H](O)[C@H]1O [D-galactonolactone]	–	–
